Laboratory results reported in ChEMBL document CHEMBL6078651, “Tyrosinase Inhibitory Properties of Compounds Isolated from Artocarpus integer Roots” (J Nat Prod, 2024).
The source made the active and inactive calls. The calls are words filed in the database; no cut-off is given here.

Target: Mushroom tyrosinase (Agaricus bisporus) (UniProt O42713+Q00024+C7FF04+C7FF05)
Experiment: Inhibition of mushroom tyrosinase using L-DOPA as substrate at 50 uM preincubated for 10 mins followed by substrate addition measured after 20 mins by spectrophotometry
Format: protein assay
Settings: time 30.0 min

inhibition | SMILES
inactive | COc1cc(O)c2c(c1)O[C@H](c1cc(OC)c(OC)cc1OC)CC2=O
inactive | COc1cc2c(cc1O)-c1oc3cc(O)cc(O)c3c(=O)c1C(C=C(C)C)O2 (stereo not given)
inactive | C=CC(C)(C)/C=C/c1ccc(O)cc1
inactive | CC(C)=CCC/C(C)=C/Cc1c2c(c(O)c3c(=O)c4c(oc13)-c1c(O)cc(O)c3c1C(C4)C(C)(C)O3)C=CC(C)(C)O2 (stereo not given)
inactive | CC(C)=CCc1c2c(c(O)c3c(=O)c4c(oc13)-c1c(O)cc(O)c3c1C(C4)C(C)(C)O3)C=CC(C)(C)O2 (stereo not given)
inactive | COc1cc(O)c2c(=O)c3c(oc2c1)-c1cc(O)c(OC)cc1OC3C=C(C)C (stereo not given)
inactive | CC(C)=CCC/C(C)=C/Cc1c2c(c(O)c3c(=O)c(CC=C(C)C)c(-c4cc(C)c(O)cc4O)oc13)C=CC(C)(C)O2
inactive | C=C(C)C1Cc2c(oc3cc(OC)cc(O)c3c2=O)-c2c(O)cc(OC)c(O)c21 (stereo not given)

The remaining lines, values behind:

SMILES | inhibition
C=C(C)c1cc2c(=O)c3c(O)c4c(c(C/C=C(\C)CCC=C(C)C)c3oc2c2c1[C@](O)(C(=O)OC)CC2=O)OC(C)(C)C=C4 | inactive
CC(C)c1cc2c(O)cc(-c3cc4ccc(O)cc4o3)cc2o1 | inactive
C=C(C)c1cc2c(=O)c3c(O)c(CC=C(C)C)c(O)c(C/C=C(\C)CCC=C(C)C)c3oc2c2c1[C@](O)(C(=O)OC)CC2=O | inactive
COc1cc2c(c3oc(-c4cc(O)cc(O)c4)cc13)C=CC(C)(C)O2 | inactive
COc1cc2c(c3c1[C@H](C(C)(C)O)CC[C@@H]3c1ccc(O)cc1O)C=CC(C)(C)O2 | inactive
C=C(C)c1cc2c(=O)c3c(O)c4c(c(CC=C(C)C)c3oc2c2c1[C@](O)(C(=O)OC)CC2=O)OC(C)(C)C=C4 | inactive
CC(C)=CC1Oc2cc(O)ccc2-c2oc3cc(O)cc(O)c3c(=O)c21 (stereo not given) | inactive
